What was measured:
[1] = system: soybean plants containing event EE-GM5; assay: HPPD inhibitor herbicide tolerance field trials (maximum phytotoxicity); assay type: in vivo, soybean (Glycine max); details: 3rd year
[2] = system: soybean plants containing event EE-GM5; assay: as above; assay type: in vivo, soybean (Glycine max); details: for tolerance of plants with EE-GM5 to the herbicide: field, different locations over 2 years; for average maximum phytotoxicity value: several field trials across 2 years
Excerpt: Numbers in ( ) below a treatment give the number of trials included in the bar, the number on top of each bar gives the average maximum phytotoxicity value for that treatment. Treatments applied were: IFT=isoxaflutole, MST=mesotrione, PE=pre-emergence, P0=post-emergence (at V2-V3 stage, with adjuvants crop oil concentrate and ammonium sulfate added to increase herbicide activity). Rates shown are in gram active ingredient/hectare (4× dose in pre-emergence, 2× dose in post-emergence).
Tolerance of plants comprising EE-GM5 to HPPD inhibitor herbicides was tested at different locations in the field over 2 years. […] All post-emergence treatments were at the V2-V3 stage, with adjuvants crop oil concentrate and ammonium sulfate added to increase herbicide activity.
The “maximum phytotoxicity” as used herein is the highest phytotoxicity rating recorded at any observation during the duration of a trial (with 3 to 4 observations per trial). In existing weed control applications, a normal (lx) dose for isoxaflutole (IFT) in pre- or post-emergence application and for MST in post-emergence application is 105 gr/ha, and a normal (lx) dose for mesotrione in pre-emergence application is 210 gr/ha.
Also, in several field trials across 2 years, soybean plants with event EE-GM5 had good tolerance towards experimental HPPD inhibitor compound 2-methyl-N-(5-methyl-1,3,4-oxadiazol-2-yl)-3-(methylsulfonyl)-4-(trifluoromethyl)benzamide (U.S. Pat. No. 9,101,141) when applied pre-emergence at 400 gr ai/ha or post-emergence at 200 gr ai/ha, respectively (the average maximum phytotoxicity value for each treatment was below 20%). […] All post-emergence treatments were at the V2-V3 stage, with adjuvants crop oil concentrate and ammonium sulfate added to increase herbicide activity.
Also, plants with EE-GM5 when treated post-emergent (V2-V3) with topramezone at 36 g ai/ha (+COC and AMS) in 2 field trials in the US gave an average maximum phytotoxicity of 11%, showing EE-GM5 also confers good tolerance to this HPPD inhibitor.

[3] = applied post-emergence (V2-V3 stage, with adjuvants)

CS(=O)(=O)c1cc(C(F)(F)F)ccc1C(=O)c1cnoc1C1CC1 [isoxaflutole, (5-cyclopropyl-4-isoxazolyl)[2-(methylsulfonyl)-4-(trifluoromethyl)phenyl]methanone]
average maximum phytotoxicity ([1]; post-emergence (V2-V3 stage), 210 h/ha, 4 locations, EE-GM5 in Thorne background): 10.9% | maximum phytotoxicity ([1]; pre-emergence, 410 g/ha, one field trial location, EE-GM5 in Thorne background): 9% | tolerance of plants with EE-GM5 to the herbicide [2, 3]: commercially relevant tolerance | tolerance of plants with EE-GM5 to the herbicide ([2]; applied pre-emergence): commercially relevant tolerance

Cc1nnc(NC(=O)c2ccc(C(F)(F)F)c(S(C)(=O)=O)c2C)o1 [2-methyl-N-(5-methyl-1,3,4-oxadiazol-2-yl)-3-(methylsulfonyl)-4-(trifluoromethyl)benzamide]
average maximum phytotoxicity value ([2]; post-emergence (V2-V3) at 200 gr ai/ha, with crop oil concentrate and ammonium sulfate): below 20% | average maximum phytotoxicity value ([2]; pre-emergence at 400 gr ai/ha): below 20%

CS(=O)(=O)c1ccc(C(=O)C2C(=O)CCCC2=O)c([N+](=O)[O-])c1 [mesotrione, 2-[4-(Methylsulfonyl)-2-nitrobenzoyl]cyclohexane-1,3-dione]
tolerance of plants with EE-GM5 to the herbicide [2, 3]: commercially relevant tolerance | tolerance of plants with EE-GM5 to the herbicide ([2]; applied pre-emergence): commercially relevant tolerance

CSc1c(C(F)(F)F)ccc(C(=O)Nc2nnnn2C)c1Cl [2-chloro-3-(methylsulfanyl)-N-(1-methyl-1H-tetrazol-5-yl)-4-(trifluoromethyl)benzamide]
average maximum phytotoxicity ([1]; post-emergence at 150 g/ha, 3 field trial locations, Thorne background): 13.3% | average maximum phytotoxicity ([2]; post-emergence (V2-V3) at 100-150 gr ai/ha, with crop oil concentrate and ammonium sulfate): 20%

Cc1c(C(=O)c2cnn(C)c2O)ccc(S(C)(=O)=O)c1C1=NOCC1 [topramezone, [3-(4,5-dihydro-3-isoxazolyl)-2-methyl-4-(methylsulfonyl)phenyl](5-hydroxy-1-methyl-1H-pyrazol-4-yl)methanone]
average maximum phytotoxicity ([2]; post-emergent (V2-V3) at 36 g ai/ha (+COC and AMS), 2 field trials in the US): 11%
